From patent US9023789B2, “Amylin analogs and pharmaceutical compositions thereof” (Novo Nordisk A/S, priority 2012, dated 2015)
In brackets after ≈: the same amount, converted by molar mass. Read-outs that look alike come from different tables or passages of the source. Numbered stars: 1 amine (or outer) side, 2 acyl side, 3 side chain; on linkers, the order of the positions; unused ones are H or OH. Bridge positions count the residues as written; N and C are the ends. Side chains are listed from the residue outwards. Peptide text beside a SMILES is read from it. * marks the point of attachment. C20 diacid = O=C(O)CCCCCCCCCCCCCCCCCCC(=O)*; γGlu = O=C(O)[C@H](CCC(=O)[*:2])N[*:1]

Assay: ASSAY (IV) determination of solubility
Assay type: physicochemical
In short: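 Samples of polypeptide, prepared from a water stock at […] and diluted 1:1 into 100 mM buffers spanning pH 3.0 to 8.0, stood 18 hours at room temperature. Polypeptide concentration was then determined by UPLC following centrifugation.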

[1] = bistrispropane buffer, pH 6.5, read-out: Solubility pH 6.5 Concentration
[2] = bistrispropane buffer, pH 7.5, read-out: Solubility pH 7.5 Concentration
[3] = bistrispropane buffer, pH 6.0, read-out: Solubility pH 6.0 Concentration
[4] = bistrispropane buffer, pH 7.0, read-out: Solubility pH 7.0 Concentration
[5] = bistrispropane buffer, pH 8.0, read-out: Solubility pH 8.0 Concentration
[6] = glycylglycine buffer, pH 3.0, read-out: Solubility pH 3.0 Concentration
[7] = glycylglycine buffer, pH 4.0, read-out: Solubility pH 4.0 Concentration
[8] = glycylglycine buffer, pH 5.0, read-out: Solubility pH 5.0 Concentration

SMILES	solubility at 18 h [1] [µM]	solubility at 18 h [2] [µM]	solubility at 18 h [3] [µM]	solubility at 18 h [4] [µM]	solubility at 18 h [5] [µM]	solubility at 18 h [6] [µM]	solubility at 18 h [7] [µM]	solubility at 18 h [8] [µM]
CC[C@H](C)[C@H](NC(=O)[C@H](C)NC(=O)CNC(=O)[C@H](Cc1ccccc1)NC(=O)[C@H](CC(N)=O)NC(=O)[C@@H]1CCCN1C(=O)[C@H](CO)NC(=O)[C@H](CO)NC(=O)[C@H](Cc1c[nH]cn1)NC(=O)[C@H](CCCNC(=N)N)NC(=O)[C@H](CC(C)C)NC(=O)[C@H](Cc1ccccc1)NC(=O)[C@H](CC(N)=O)NC(=O)[C@H](C)NC(=O)[C@H](CC(C)C)NC(=O)[C@H](CCCNC(=N)N)NC(=O)[C@H](CCC(N)=O)NC(=O)[C@@H](NC(=O)[C@H](C)NC(=O)[C@@H]1CSSC[C@H](NC(=O)[C@@H](N)CCCCNC(=O)CC[C@H](NC(=O)CCCCCCCCCCCCC(=O)O)C(=O)O)C(=O)N[C@@H](CC(N)=O)C(=O)N[C@@H]([C@@H](C)O)C(=O)N[C@@H](C)C(=O)N[C@@H]([C@@H](C)O)C(=O)N1)[C@@H](C)O)C(=O)N1CCC[C@H]1C(=O)N[C@@H](CO)C(=O)N[C@@H](CO)C(=O)N[C@H](C(=O)N[C@@H](CC(N)=O)C(=O)N[C@H](C(=O)NCC(=O)N[C@@H](Cc1c[nH]cn1)C(=O)N[C@@H](CC(N)=O)C(=O)N[C@H](C(=O)N[C@@H](Cc1ccc(O)cc1)C(N)=O)[C@@H](C)O)C(C)C)[C@@H](C)O [Example 112]	≥ 200	≥ 200	≥ 200	≥ 200	≥ 200	≥ 200	≥ 200	≥ 200
CC[C@H](C)[C@H](NC(=O)[C@H](C)NC(=O)CNC(=O)[C@H](Cc1ccccc1)NC(=O)[C@H](CC(N)=O)NC(=O)[C@@H]1CCCN1C(=O)[C@H](CO)NC(=O)[C@H](CO)NC(=O)[C@H](Cc1c[nH]cn1)NC(=O)[C@H](CCCNC(=N)N)NC(=O)[C@H](CC(C)C)NC(=O)[C@H](Cc1ccccc1)NC(=O)[C@H](CC(N)=O)NC(=O)[C@H](C)NC(=O)[C@H](CC(C)C)NC(=O)[C@H](CCCNC(=N)N)NC(=O)[C@H](CCC(N)=O)NC(=O)[C@@H](NC(=O)[C@H](C)NC(=O)[C@@H]1CSSC[C@H](NC(=O)[C@@H](N)CCCCNC(=O)CC[C@H](NC(=O)CCCCCCCCCCCCCCCCC(=O)O)C(=O)O)C(=O)N[C@@H](CC(N)=O)C(=O)N[C@@H]([C@@H](C)O)C(=O)N[C@@H](C)C(=O)N[C@@H]([C@@H](C)O)C(=O)N1)[C@@H](C)O)C(=O)N1CCC[C@H]1C(=O)N[C@@H](CO)C(=O)N[C@@H](CO)C(=O)N[C@H](C(=O)N[C@@H](CC(N)=O)C(=O)N[C@H](C(=O)NCC(=O)N[C@@H](Cc1c[nH]cn1)C(=O)N[C@@H](CC(N)=O)C(=O)N[C@H](C(=O)N[C@@H](Cc1ccc(O)cc1)C(N)=O)[C@@H](C)O)C(C)C)[C@@H](C)O [Example 113]	≥ 200	154 (≈ 678 µg/mL)	≥ 200	–	96 (≈ 423 µg/mL)	≥ 200	≥ 200	≥ 200
CC[C@H](C)[C@H](NC(=O)[C@H](C)NC(=O)CNC(=O)[C@H](Cc1ccccc1)NC(=O)[C@H](CC(N)=O)NC(=O)[C@@H]1CCCN1C(=O)[C@H](CO)NC(=O)[C@H](CO)NC(=O)[C@H](Cc1c[nH]cn1)NC(=O)[C@H](CCCNC(=N)N)NC(=O)[C@H](CC(C)C)NC(=O)[C@H](Cc1ccccc1)NC(=O)[C@H](CCC(=O)O)NC(=O)[C@H](C)NC(=O)[C@H](CC(C)C)NC(=O)[C@H](CCCNC(=N)N)NC(=O)[C@H](CCC(N)=O)NC(=O)[C@@H](NC(=O)[C@H](C)NC(=O)[C@@H]1CSSC[C@H](NC(=O)[C@@H](N)CCCCNC(=O)CC[C@H](NC(=O)CCCCCCCCCCCCCCCCCCC(=O)O)C(=O)O)C(=O)N[C@@H](CC(N)=O)C(=O)N[C@@H]([C@@H](C)O)C(=O)N[C@@H](C)C(=O)N[C@@H]([C@@H](C)O)C(=O)N1)[C@@H](C)O)C(=O)N1CCC[C@H]1C(=O)N[C@@H](CO)C(=O)N[C@@H](CO)C(=O)N[C@H](C(=O)N[C@@H](CC(N)=O)C(=O)N[C@H](C(=O)NCC(=O)N1CCC[C@H]1C(=O)N[C@@H](CC(N)=O)C(=O)N[C@H](C(=O)N1CCC[C@H]1C(N)=O)[C@@H](C)O)C(C)C)[C@@H](C)O [Example 114] (H-K([γGlu-C20 diacid])CNTATCATQRLAEFLRHSSPNFGAIPSSTNVGPNTP-NH2; disulfide 2-7 (inferred); N-terminus assumed)	≥ 200	≥ 200	≥ 200	≥ 200	≥ 200	≥ 200	≥ 200	≥ 200

The remaining lines, values ahead:

solubility at 18 h [1] [µM]	solubility at 18 h [2] [µM]	solubility at 18 h [3] [µM]	solubility at 18 h [4] [µM]	solubility at 18 h [5] [µM]	solubility at 18 h [6] [µM]	solubility at 18 h [7] [µM]	solubility at 18 h [8] [µM]	SMILES
≥ 200	≥ 200	≥ 200	≥ 200	180 (≈ 791 µg/mL)	≥ 200	≥ 200	≥ 200	CC[C@H](C)[C@H](NC(=O)[C@H](C)NC(=O)CNC(=O)[C@H](Cc1ccccc1)NC(=O)[C@H](CC(N)=O)NC(=O)[C@@H]1CCCN1C(=O)[C@H](CO)NC(=O)[C@H](CO)NC(=O)[C@H](Cc1c[nH]cn1)NC(=O)[C@H](CCCNC(=N)N)NC(=O)[C@H](CC(C)C)NC(=O)[C@H](Cc1ccccc1)NC(=O)[C@H](Cc1c[nH]cn1)NC(=O)[C@H](C)NC(=O)[C@H](CC(C)C)NC(=O)[C@H](CCCNC(=N)N)NC(=O)[C@H](CCC(N)=O)NC(=O)[C@@H](NC(=O)[C@H](C)NC(=O)[C@@H]1CSSC[C@H](NC(=O)[C@@H](N)CCCCNC(=O)CC[C@H](NC(=O)CCCCCCCCCCCCCCCCCCC(=O)O)C(=O)O)C(=O)N[C@@H](CC(N)=O)C(=O)N[C@@H]([C@@H](C)O)C(=O)N[C@@H](C)C(=O)N[C@@H]([C@@H](C)O)C(=O)N1)[C@@H](C)O)C(=O)N1CCC[C@H]1C(=O)N[C@@H](CO)C(=O)N[C@@H](CO)C(=O)N[C@H](C(=O)N1CCC[C@H]1C(=O)N[C@H](C(=O)NCC(=O)N1CCC[C@H]1C(=O)N[C@@H](CC(N)=O)C(=O)N[C@H](C(=O)N[C@@H](Cc1ccc(O)cc1)C(N)=O)[C@@H](C)O)C(C)C)[C@@H](C)O [Example 116] (H-K([γGlu-C20 diacid])CNTATCATQRLAHFLRHSSPNFGAIPSSTPVGPNTY-NH2; disulfide 2-7)
≥ 200	≥ 200	≥ 200	≥ 200	≥ 200	≥ 200	≥ 200	≥ 200	CC[C@H](C)[C@H](NC(=O)[C@H](C)NC(=O)CNC(=O)[C@H](Cc1ccccc1)NC(=O)[C@H](CC(N)=O)NC(=O)[C@@H]1CCCN1C(=O)[C@H](CO)NC(=O)[C@H](CO)NC(=O)[C@H](Cc1c[nH]cn1)NC(=O)[C@H](CCCNC(=N)N)NC(=O)[C@H](CC(C)C)NC(=O)[C@H](Cc1ccccc1)NC(=O)[C@H](CC(=O)O)NC(=O)[C@H](C)NC(=O)[C@H](CC(C)C)NC(=O)[C@H](CCCNC(=N)N)NC(=O)[C@H](CCC(N)=O)NC(=O)[C@@H](NC(=O)[C@H](C)NC(=O)[C@@H]1CSSC[C@H](NC(=O)[C@@H](N)CCCCNC(=O)CC[C@H](NC(=O)CC[C@H](NC(=O)CCCCCCCCCCCCCCCCCCC(=O)O)C(=O)O)C(=O)O)C(=O)N[C@@H](CC(N)=O)C(=O)N[C@@H]([C@@H](C)O)C(=O)N[C@@H](C)C(=O)N[C@@H]([C@@H](C)O)C(=O)N1)[C@@H](C)O)C(=O)N1CCC[C@H]1C(=O)N[C@@H](CO)C(=O)N[C@@H](CO)C(=O)N[C@H](C(=O)N[C@@H](CC(N)=O)C(=O)N[C@H](C(=O)NCC(=O)N1CCC[C@H]1C(=O)N[C@@H](CCC(=O)O)C(=O)N[C@H](C(=O)N[C@@H](Cc1ccc(O)cc1)C(N)=O)[C@@H](C)O)C(C)C)[C@@H](C)O [Example 122] (H-K([γGlu-γGlu-C20 diacid])CNTATCATQRLADFLRHSSPNFGAIPSSTNVGPETY-NH2; disulfide 2-7 (inferred); N-terminus assumed)
≥ 200	≥ 200	≥ 200	≥ 200	≥ 200	≥ 200	≥ 200	≥ 200	CC[C@H](C)[C@H](NC(=O)[C@H](C)NC(=O)CNC(=O)[C@H](Cc1ccccc1)NC(=O)[C@H](CC(N)=O)NC(=O)[C@@H]1CCCN1C(=O)[C@H](CO)NC(=O)[C@H](CO)NC(=O)[C@H](Cc1c[nH]cn1)NC(=O)[C@H](CCCNC(=N)N)NC(=O)[C@H](CC(C)C)NC(=O)[C@H](Cc1ccccc1)NC(=O)[C@H](CCC(=O)O)NC(=O)[C@H](C)NC(=O)[C@H](CC(C)C)NC(=O)[C@H](CCCNC(=N)N)NC(=O)[C@H](CCC(N)=O)NC(=O)[C@@H](NC(=O)[C@H](C)NC(=O)[C@@H]1CSSC[C@H](NC(=O)[C@@H](N)CCCCNC(=O)CC[C@H](NC(=O)CC[C@H](NC(=O)CCCCCCCCCCCCCCCCCCC(=O)O)C(=O)O)C(=O)O)C(=O)N[C@@H](CC(N)=O)C(=O)N[C@@H]([C@@H](C)O)C(=O)N[C@@H](C)C(=O)N[C@@H]([C@@H](C)O)C(=O)N1)[C@@H](C)O)C(=O)N1CCC[C@H]1C(=O)N[C@@H](CO)C(=O)N[C@@H](CO)C(=O)N[C@H](C(=O)N[C@@H](CC(N)=O)C(=O)N[C@H](C(=O)NCC(=O)N1CCC[C@H]1C(=O)N[C@@H](CCC(=O)O)C(=O)N[C@H](C(=O)N1CCC[C@H]1C(N)=O)[C@@H](C)O)C(C)C)[C@@H](C)O [Example 125] (H-K([γGlu-γGlu-C20 diacid])CNTATCATQRLAEFLRHSSPNFGAIPSSTNVGPETP-NH2; disulfide 2-7 (inferred); N-terminus assumed)
